Source: patent US8106004B2, “Methods of inhibiting tumor cell aggressiveness using the microenvironment of human embryonic stem cells” (Children's Memorial Hospital, priority 2006, dated 2012)

Test system: C8161 cells
Assay: Soft agar / anchorage independent growth assay, C8161 cells
Type: cell-based, human
Conditions: C8161 treated with anti-Nodal Morpholino
Method: An in vitro colony forming assay was used to analyze colony-forming ability of poorly aggressive C81-61 cells, aggressive C8161 cells, C8161 cells treated with MO^Nodal and C8161 cells treated with MO^Nodal and rescued with recombinant Nodal (100 ng/mL). The assay was conducted using 50,000 cells suspended in 0.35% agarose in RPMI containing 10% serum, which were plated into 6-well dishes on 0.5% agar in the same medium. Colonies grew, and pictures were taken at day 7. After 2 weeks, colonies were stained with Crystal Violet and counted.
The derivation and phenotypic characteristics of the human melanoma cell lines have been previously described. Seftor, et. al., 2002, Clin. Experim. Metastas. 19:233-246; Seftor, et. al., 2005 Cancer Res. 65:10164-10169. The melanoma cell lines are maintained in RPMI 1640 medium (Invitrogen) supplemented with 10% fetal bovine serum (FBS, Gemini Bioproducts) and 0.1% gentamycin sulfate with the exception of C81-61 cells which are maintained in Ham's FIO medium supplemented with 15% FBS, 1X Mito+ (BD Bioscience) and gentamycin sulfate. Normal human melanocytes are purchased (Cascade Biologics) or isolated from neonatal foreskins. Seftor, et. al., 2005. A single cell suspension is prepared, added to plastic flasks for the adherence of melanocytes and the cells propagated in Medium 254 with Human Melanocyte Growth Supplement (Cascade Biologics) including, 100 units/ml penicillin, 100 μg/ml streptomycin, and 250 ng/mL amphotericin B. The human embryonic stem cell lines are cultured as previously described. Thomson, et. al., 1998, Science 282:1145-1147. Briefly, cells are grown in 6-well plates precoated with 0.1% porcine gelatin and containing 1.9×10^5 irradiated mouse embryonic fibroblasts (strain CF-1; ATCC) per well. The cells are maintained in medium containing DMEM/F12 (1:1), 20% knock-out serum replacement, non-essential minimal amino acids, L-glutamine (Invitrogen), […], and 4 ng/ml FGF-2 (R&D Systems), and are split with collagenase (1 mg/ml) before the colonies begin to overlap. The cultures are determined to be free of mycoplasma contamination using a PCR-based assay (Roche). The normal human neonatal epidermal melanocytes (HEMn-LP; Cascade Biologics, Portland Oreg.), myoepithelial cells (Hs 578 Bst; American Type Culture Collection (ATCC), Manassas, Va.) and primary mammary epithelial cells (HMEpC; Cell Applications Inc., San Diego Calif.) were maintained as per distributor instructions. Live umbilical cord blood stem cells (SC00125; New Jersey Stem Cell Resource at Coriell Institute for Medical Research) amniotic fluid derived stem cells (GM00473, GM00957A) and adult bone marrow derived mesenchymal stem cells (Stem Cell Technologies, Vancouver BC, Canada) were maintained under the recommended conditions. The HTR-8/SVneo is a well characterized immortalized human extravillous cytotrophoblast cell line, and was maintained as previously described Graham et al., 1993, Exp. Cell Res. 206:204-211. […] The expression vector for wild type Nodal was kindly provided by Dr. Daniel Constam (Swiss Institute for Experimental Cancer Research (ISREC), Epalinges, Switzerland) and was transfected into C81-61 cells as previously described. Le Good et al., 2005, Curr. Biol. 15:31-36. […]

## MO^Nodal: FITC-conjugated anti-sense Morpholino to Nodal, 5′-AAGCAGCACCTCCAGCCCTTATATC-3′ [SEQ ID NO: 20] (all phosphorodiamidate morpholino (PMO); FITC conjugated, position not given here)
After 2 weeks, n=16, p<0.001
  reduction of colony formation: 57%
Soft agar
  ability to undergo anchorage-independent growth: significantly diminished
